Source: US20240317826A1, “COMPOSITIONS AND METHODS FOR TREATING AND/OR I[…] AGENT FOR TREATING HIV-1 INFECTIONS” (priority 2021, published 2024)
Entries after “also recorded” stand apart in the source; their conditions may differ. Like-named read-outs stand apart in the source and are kept apart here.

Legend:
[1] = biological target: T1, IN/TAR RNA complex (Human immunodeficiency virus type 1 group M subtype B, UniProt P04585); assay: RNA-co-IP in 293T cells: TAR RNA bound to YFP-IN; assay type: cell-based, HIV-1
T1 construct: expressed in transfected cells; host or cells: 293T cells
From the text: (§1) Panels d-g show the input RNA and protein levels within transfected cells: the RT-PCR analysis of input TAR RNA levels (panel d); Immunoblot analysis of input HA-INI1 (panel e); input YFP-IN (panel f); and GAPDH level for loading control (panel g). Lane 1 is RNA-co-IP using isotype IgG control antibodies and lanes 2-7 are RNA-co-IP using anti-GFP antibodies to pull down IN. There is ˜1000 fold inhibition of RNA and INI1 binding to IN in the presence of SP-38 peptide (compare lane 6 to lane 5).
For RNA-co-IP, […] were transfected with pCMV-Tat and pLTR-luc plasmids along with pYFP-IN and pCGN-INI1. Immunopreciptation was carried out as above using α-GFP (Cell Signal, Catalogue #2555; Lot #8; 5 ag/sample) antibodies. The immunecomplexes were then split into two and RNA was isolated from one half using Trizol reagent (Invitrogen Catalogue #15596026) and subjected to qRT-PCR using Early RT primers. The other half was subjected to immunoblot analysis.
(§2) To determine if stapled peptides can inhibit interaction of IN with TAR RNA in cells, we carried out RNA-co-IP experiments (FIG. 8e). YFP-IN and TAR RNA were expressed by co-transfecting plasmids pYFP-fN, pLTIR-luc and pTat in 293T cells. Cells were treated with SP-38 or SP-83 (D225G mutant) peptides. After transfection, the cell lysates were treated with DNaseI and subjected to immunoprecipitation (IP) using α-GFP antibodies to pull down YFP-IN and associated complexes. RNA was separated from the immune complexes and subjected to RT-PCR to detect bound TAR RNA (FIG. 8e, panel a). Immunoblot analysis of bound proteins were carried out using: α-HA to detect bound HA-INI1 (FIG. 8e, panel b) and α-GFP to detect YFP-IN (FIG. 8e, panel c). RT-PCR of the RNA isolated from cell lysate was used as input control (FIG. 8e, panel d). Immunoblot analysis of total proteins from cell lysates as input control were carried out using α-HA to detect input HA-INI1 (FIG. 8e, panel e), α-GFP to detect input YFP-IN (FIG. 8e, panel f), and α-GAPDH to detect GAPDH as loading control (FIG. 8e, panel g). […] Expression of both GFP-IN and TAR RNA in the cells led to successful RNA-co-IP by α-GFP antibodies (FIG. 8e, lane 5).

[2] = system: HIV-1NL4-3; assay: Multiday HIV-1 replication assay in CEM-GFP cells; assay type: cell-based; settings: CEM-GFP cells infected with HIV-1NL4-3; 1 and 5 micromolar peptide; GFP expression and p24 in culture supernatants
From the text: FIG. 9A-FIG. 9C show an inhibition of HIV-1 replication by Stapled peptides in a multiday replication assay in CEM-GFP cells. […] FIG. 9B and FIG. 9C show images representing the expression of GFP in CEM GFP cells in presence or absence of 1 and 5 micromolar Stapled peptides or DMSO control. FIG. 9D and FIG. 9E show p24 ELISA analysis of culture supernatants from CEM-GFP cells from panels FIG. 9B and FIG. 9C samples. The CEM-GFP cells were infected with HIV-1NL4-3 and treated with stapled peptides. Culture supernatants were collected on multiple days as indicated and p24 analysis was carried out.
To determine if the stapled peptides can inhibit HIV-1 replication in cell culture, we used CEM-GFP cell lines, which harbor LTR-GFP as a reporter. HIV-1 infection of these cells activates GFP expression.

[3] = system: INI1 incorporation into HIV-1 virions; assay: Immunoblot of virions for incorporation of INI1; assay type: cell-based; settings: Western analysis of concentrated virions
From the text: FIG. 12A-FIG. 12C show effects of stapled peptides on virion morphogenesis and incorporation of INI1. […] The middle panel is the expanded version and the lower panel represents the carton of the two viral particles from the middle panel. Note the empty capsid shell and eccentric electron dense material, typical of morphologically defective virions. […] About 200 virions each were scored to quantify four different types of morphological forms—Conical (Co), Eccentric (Ec), Immature (Im) and Unclear (Uc).
We tested the incorporation of INI1 into the virions. Electron microscopy analysis of ˜200 particles and Western analysis of concentrated virions were carried out to determine the presence or absence of INI1 (FIG. 12b).

[4] = system: reactivated HIV-1 from latent cells (J1.1); assay: Co-culture of PMA-reactivated latent J1.1 cells with CEM-GFP cells; assay type: cell-based; design: inhibition of infection of CEM-GFP cells by reactivated virus (green cells): dose or concentration left out as unconfirmed; settings: J1.1 + CEM-GFP co-culture; for inhibition of infection of CEM-GFP cells by reactivated virus (green cells): PMA, images day 2 postinduction; for inhibition of virus spread, p24 levels in culture: p24 on day 5
From the text: FIG. 13A-FIG. 13C show staple peptides inhibit infection of reactivated HIV-1 from latent cells. […] Cells harboring latent virus (J1.1) were co-cultured with CEM-GFP cells in the presence and absence of stapled peptides. Addition of PMA reactivates HIV-1 from latent cells which infect CEM cells to induce expression of GFP. […] Images were taken on day 2 postinduction. […] Experiments was done in triplicates and the graph represents mean+/−SEM.
As a proof-of-concept to test if the stapled peptides inhibit spreading of the reactivated latent viruses, we used an in vitro cell line model of latency, J1.1 cells. J1.1 have a single latently integrated provirus which is activated using LRAs. We activated the latently integrated provirus by the addition of PMA and then mixed them with CEM-GFP cells in the cultures. Infection of CEM-GFP cells with virus produced from J1.1 upon reactivation turns the CEM-GFP T-cells green (FIGS. 13a and b right side panels). We tested the effect of addition of stapled peptides in this co-culture experiment (FIGS. 13a and b middle and left side panels). […] We furthermore determined the p24 released from the culture supernatant as a measure of the virus production in the presence and absence of stapled peptides (FIG. 13c).

[5] = biological target: T2, IN/INI1 complex (Human immunodeficiency virus type 1 group M subtype B, UniProt P04585); assay: co-IP in 293T cells: HA-INI1 bound to YFP-IN; assay type: cell-based, HIV-1
T2 construct: expressed in transfected cells; host or cells: 293T cells
From the text: as §1, §2

Substance: lys-Leu-Met-Thr-Pro-Glu-Met-Phe-S5-Glu-Ile-Leu-S5-Cys-Asp-Leu-Asn [SP38]
- inhibition of IN/RNA complex formation within cells [1]: potently inhibits
- inhibition of HIV-1 propagation/replication [2]: Inhibits HIV-1 Replication at Low Micromolar Concentrations; also recorded: potently inhibited
- incorporation of INI1 into virions [3]: not incorporated; also recorded: lack of INI1 incorporation into virions
- inhibition of infection of CEM-GFP cells by reactivated virus (green cells) [4]: inhibited the infection
- inhibition of virus spread, p24 levels in culture [4]: inhibited the virus spread; also recorded: inhibits p24 levels in induced and uninduced conditions
- inhibition of IN/INI1 complex formation within cells [5]: potently inhibits
- inhibition of INI1 binding to IN ([5]; immunoblot of bound HA-INI1): ~1000 fold

Substance: lys-Leu-Met-Thr-Pro-Glu-Met-Phe-S5-Glu-Ile-Leu-S5-Cys-Gly-Leu-Asn [SP83]
- inhibition of IN/RNA complex formation within cells [1]: not
- inhibition of RNA binding to IN in RNA-co-IP ([1]; RT-PCR of bound TAR RNA): not
- inhibition of IN/RNA complex formation within cells ([1]; listed as SP83 (D225G)): does not inhibit
- inhibition of HIV-1 propagation/replication [2]: not
- incorporation of INI1 into virions [3]: incorporated
- inhibition of infection of CEM-GFP cells by reactivated virus (green cells) [4]: not
- inhibition of virus spread, p24 levels in culture [4]: not
- inhibition of IN/INI1 complex formation within cells [5]: not
- inhibition of IN/INI1 complex formation within cells ([5]; listed as SP83 (D225G)): does not inhibit
